Reference: patent publication US8513423B2 (Janssen Pharmaceutica, NV, priority 2010, dated 2013)
Numbering of substitutions follows the chain as printed. Like-named read-outs stand apart in the source and are kept apart here.

Legend:
[1] = target: T1, purified wild type MGL (wt-MGLL 6H-11-313) (Homo sapiens, UniProt Q99685); test: MGL enzyme activity assay (4MU-B cleavage), wild type MGL; assay type: biochemical; details: 10 μM 4MU-B, 5 nM enzyme, 37° C., read-out: MGL wild type inh IC50
T1 construct: purified wild type MGL (wt-MGLL 6H-11-313)
T1 sequence (Q99685 1-303): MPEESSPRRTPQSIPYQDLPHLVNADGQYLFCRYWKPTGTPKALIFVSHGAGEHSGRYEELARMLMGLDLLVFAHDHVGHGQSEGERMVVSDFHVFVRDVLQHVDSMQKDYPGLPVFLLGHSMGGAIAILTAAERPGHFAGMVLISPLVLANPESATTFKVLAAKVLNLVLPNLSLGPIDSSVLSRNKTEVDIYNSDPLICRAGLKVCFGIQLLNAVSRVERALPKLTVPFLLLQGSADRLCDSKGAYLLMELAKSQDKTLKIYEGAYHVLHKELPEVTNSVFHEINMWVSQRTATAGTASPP
Protocol: All rate-based assays were performed in black 384-well polypropylene PCR microplates (Abgene) in a total volume of 30 μL. Substrate 4-methylumbelliferyl butyrate (4MU-B; Sigma) and either purified mutant MGL (mut-MGLL 11-313 L179S L186S) or purified wild type MGL (wt-MGLL 6H-11-313) were diluted separately into 20 mM PIPES buffer (pH=7.0), containing 150 mM NaCl and 0.001% Tween 20. Compounds of Formula (I) were pre-dispensed (50 nL) into the assay plate using a Cartesian Hummingbird prior to adding 4MU-B (25 μL of 1.2× solution to a final concentration of 10 μM) followed by enzyme (5 μL of a 6× solution to a final concentration of 5 nM) to initiate the reaction. Final compound concentrations ranged from 17 to 0.0003 μM. The fluorescence change due to 4MU-B cleavage was monitored with excitation and emission wavelengths of 335 and 440 nm, respectively, and a bandwidth of 10 nm (Safire^2, Tecan) at 37° C. for 5 min.
The IC50 values for compounds of Formula (I) were determined using Excel from a fit of the equation to the concentration-response plot of the fractional activity as a function of inhibitor concentration.

mutant MGL = target: T2, mutant MGL (Homo sapiens, UniProt Q99685, L169S/L176S); test: MGL ThermoFluor assay - mutant; assay type: binding
T2 construct: purified mutant MGL (mut-MGLL 11-313 L179S L186S)
T2 sequence (Q99685 1-303 L169S/L176S): T1 sequence (Q99685 1-303) with L169S, L176S
Protocol: The ThermoFluor (TF) assay is a 384-well plate-based binding assay that measures thermal stability of proteins^1,2. The experiments were carried out using instruments available from Johnson & Johnson Pharmaceutical Research & Development, LLC. TF dye used in all experiments was 1,8-ANS (Invitrogen: A-47). Final TF assay conditions used for MGL studies were 0.07 mg/ml of mutant MGL, 100 μM ANS, 200 mM NaCl, 0.001% Tween-20 in 50 mM PIPES (pH=7.0).
Screening compound plates contained 100% DMSO compound solutions at a single concentration. For follow-up concentration-response studies, compounds were arranged in a pre-dispensed plate (Greiner Bio-one: 781280), wherein compounds were serially diluted in 100% DMSO across 11 columns within a series. Columns 12 and 24 were used as DMSO reference and contained no compound. For both single and multiple compound concentration-repsonse experiments, the compound aliquots (46 nL) were robotically predispensed directly into 384-well black assay plates (Abgene: TF-0384/k) using the Hummingbird liquid handler. Following compound dispension, protein and dye solutions were added to achieve the final assay volume of 3 μL. The assay solutions were overlayed with 1 μl of silicone oil (Fluka, type DC 200: 85411) to prevent evaporation.
Bar-coded assay plates were robotically loaded onto a thermostatically controlled PCR-type thermal block and then heated from 40 to 90° C. degrees at a ramp-rate of 1° C./min for all experiments. Fluorescence was measured by continuous illumination with UV light (Hamamatsu LC6), supplied via fiber optics and filtered through a band-pass filter (380-400 nm; >6 OD cutoff). Fluorescence emission of the entire 384-well plate was detected by measuring light intensity using a CCD camera (Sensys, Roper Scientific) filtered to detect 500±25 nm, resulting in simultaneous and independent readings of all 384 wells. A single image with 20-sec exposure time was collected at each temperature, and the sum of the pixel intensity in a given area of the assay plate was recorded vs temperature and fit to standard equations to yield the Tm^1. • 1. Pantoliano, M. W., Petrella, E. C., Kwasnoski, J. D., Lobanov, V. S., Myslik, J., Graf, E., Carver, T., Asel, E., Springer, B. A., Lane, P., and Salemme, F. R. (2001) J Biomol Screen 6, 429-40. • 2. Matulis, D., Kranz, J. K., Salemme, F. R., and Todd, M. J. (2005) Biochemistry 44, 5258-66.
The Kd values for compounds of Formula (I) were determined from a fit of the equation to the concentration-response plot of the fractional activity as a function of Tm. For some experiments, quantitative NMR spectroscopy (qNMR) was used to measure concentration of the initial 100% DMSO compound solutions and, using the same fitting method, qKd values were determined

[2] = compound concentration measured by qNMR, read-out: MGL mutant ThermoFluor qKd (using qNMR conc.)
[3] = 0.07 mg/ml mutant MGL, pH=7.0, read-out: MGL mutant ThermoFluor Kd

SMILES	IC50 [1]	Kd (mutant MGL; [2])	Kd (mutant MGL; [3])
O=C(c1ccc(-c2cccc(C(F)(F)F)c2)cc1)N1CCC(C2CN(C(=O)c3nccs3)C2)CC1 [Cpd 48, 4-[1-(1,3-Thiazol-2-ylcarbonyl)azetidin-3-yl]-1-{[3′-(trifluoromethyl)biphenyl-4-yl]carbonyl}piperidine]	< 5 nM	1 nM	
O=C(c1ccccc1)N1CCC(O)(C2CN(C(=O)c3cc4cc(C(F)(F)F)ccc4s3)C2)CC1 [Cpd 6, 1-(Phenylcarbonyl)-4-(1-{[5-(trifluoromethyl)-1-benzothiophen-2-yl]carbonyl}azetidin-3-yl)piperidin-4-ol]	918 nM		258 nM
O=C(c1ccc2c(c1)ncn2-c1ccc(F)c(F)c1)N1CC(C2CCN(C(=O)c3nccs3)CC2)C1 [Cpd 82, 1-(3,4-Difluorophenyl)-5-({3-[1-(1,3-thiazol-2-ylcarbonyl)piperidin-4-yl]azetidin-1-yl}carbonyl)-1H-benzimidazole]	35.5 nM	22.8 nM	
O=C(c1cccc(-c2cccc(F)c2)c1)N1CC(C2CCN(C(=O)c3ccc[nH]3)CC2)C1 [Cpd 23, 4-{1-[(3′-Fluorobiphenyl-3-yl)carbonyl]azetidin-3-yl}-1-(1H-pyrrol-2-ylcarbonyl)piperidine]	368 nM		500 nM
O=C(c1ccc2c(c1)ncn2CC(F)(F)F)N1CC(C2CCN(C(=O)c3nccs3)CC2)C1 [Cpd 84, 5-({3-[1-(1,3-Thiazol-2-ylcarbonyl)piperidin-4-yl]azetidin-1-yl}carbonyl)-1-(2,2,2-trifluoroethyl)-1H-benzimidazole]	175 nM	66.3 nM	
O=C(c1ccc(-c2ccccc2)cc1)N1CC(C2CCN(C(=O)c3cncs3)CC2)C1 [Cpd 5, 4-[1-(Biphenyl-4-ylcarbonyl)azetidin-3-yl]-1-(1,3-thiazol-5-ylcarbonyl)piperidine]	87.6 nM		64.1 nM
O=C(c1ccc2c(ccn2-c2ccc(C(F)(F)F)cc2)c1)N1CCC(C2CN(C(=O)c3nccs3)C2)CC1 [Cpd 75, 5-({4-[1(1,3-Thiazol-2-ylcarbonyl)azetidin-3-yl]piperidin-1-yl}carbonyl)-1-[4-(trifluoromethyl)phenyl]-1H-indole]	< 5 nM	3.9 nM	
O=C(c1ccc2c(ccn2-c2ccc(F)c(F)c2)c1)N1CCC(C2CN(C(=O)c3nccs3)C2)CC1 [Cpd 78, 1-(3,4-Difluorophenyl)-5-({4-[1-(1,3-thiazol-2-ylcarbonyl)azetidin-3-yl]piperidin-1-yl}carbonyl)-1H-indole]	< 5 nM	2.3 nM	
O=C(c1ccc2c(c1)ncn2-c1ccc(C(F)(F)F)cc1)N1CC(C2CCN(C(=O)c3nccs3)CC2)C1 [Cpd 83, 5-({30[1-(1,3-Thiazol-2-ylcarbonyl)piperidin-4-yl]azetidin-1-yl}carbonyl)-1-[4-(trifluoromethyl)phenyl]-1H-benzimidazole]	9.16 nM	13.6 nM	

Continued, values first:

IC50 [1]	Kd (mutant MGL; [2])	Kd (mutant MGL; [3])	SMILES
173 nM	23.7 nM		Cc1nc2cc(C(=O)N3CC(C4CCN(C(=O)c5nccs5)CC4)C3)ccc2n1CC(F)(F)F [Cpd 90, 2-Methyl-5-({3-[1-(1,3-thiazol-2-ylcarbonyl)piperidin-4-yl]azetidin-l-yl}carbonyl)-1-(2,2,2-trifluoroethyl)-1H-benzimidazole]
17.3 nM	16.7 nM		O=C(c1ccc2c(c1)[nH]c(=O)n2-c1ccc(C(F)(F)F)cc1)N1CC(C2CCN(C(=O)c3nccs3)CC2)C1 [Cpd 99, 5-({3-[1-(1,3-Thiazol-2-ylcarbonyl)piperidin-4-yl]azetidin-1-yl}carbonyl)-1-[4-(trifluoromethyl)phenyl]-1,3-dihydro-2H-benzimidazol-2-one]
280 nM	64.5 nM		O=C(c1ccc2c(c1)ncn2CCC(F)(F)F)N1CC(C2CCN(C(=O)c3nccs3)CC2)C1 [Cpd 85, 5-({3-[1-(1,3-Thiazol-2-ylcarbonyl)piperidin-4-yl]azetidin-1-yl}carbonyl)-1-(3,3,3-trifluoropropyl)-1H-benzimidazole]
31.6 nM	7.5 nM		Cc1nc2cc(C(=O)N3CC(C4CCN(C(=O)c5nccs5)CC4)C3)ccc2n1-c1ccc(F)cc1 [Cpd 87, 1-(4-Fluorophenyl)-2-methyl-5-({3-[1-(1,3-thiazol-2-ylcarbonyl)piperidin-4-yl]azetidin-1-yl}carbonyl)-1H-benzimidazole]
237 nM	32.5 nM		Cc1nc2cc(C(=O)N3CC(C4CCN(C(=O)c5nccs5)CC4)C3)ccc2n1CCC(F)(F)F [Cpd 91, 2-Methyl-5-({3-[1-(1,3-thiazol-2-ylcarbonyl)piperidin-4-yl]azetidin-l-yl}carbonyl)-1-(3,3,3-trifluoropropyl)-1H-benzimidazole]
78.1 nM	24.7 nM		O=C(c1ccc2c(c1)[nH]c(=O)n2-c1ccccc1)N1CC(C2CCN(C(=O)c3nccs3)CC2)C1 [Cpd 96, 1-Phenyl-5-({3-[1-(1,3-thiazol-2-ylcarbonyl)piperidin-4-yl]azetidin-1-yl}carbonyl)-1,3-dihydro-2H-benzimidazol-2-one]
18.7 nM	10.6 nM		Cc1nc2cc(C(=O)N3CC(C4CCN(C(=O)c5nccs5)CC4)C3)ccc2n1-c1ccccc1 [Cpd 86, 2-Methyl-1-phenyl-5-({3-[1-(1,3-thiazol-2-ylcarbonyl)piperidin-4-yl]azetidin-1-yl}carbonyl)-1H-benzimidazole]
34.1 nM	7.7 nM		Cc1nc2cc(C(=O)N3CC(C4CCN(C(=O)c5nccs5)CC4)C3)ccc2n1-c1ccc(C(F)(F)F)cc1 [Cpd 89, 2-Methyl-5-({3-[1-(1,3-thiazol-2-ylcarbonyl)piperidin-4-yl]azetidin-1-yl}carbonyl)-1-[4-(trifluoromethyl)phenyl]-1H-benzimidazole]
14 nM	38.6 nM		Cc1cc(-n2ccc3cc(C(=O)N4CC(C5CCN(C(=O)c6nccs6)CC5)C4)ccc32)ccn1 [Cpd 95, 1-(2-Methylpyridin-4-yl)-5-({3-[1-(1,3-thiazol-2-ylcarbonyl)piperidin-4-yl]azetidin-1-yl}carbonyl)-1H-indole]
